In US12448363B2, “Kinase inhibitors” (Vidya Therapeutics, Inc., priority 2020, dated 2025):

Experiments:
[1] = system: BTK Activity in RAMOS B Cells; experiment: Assay to determine BTK activity in RAMOS B cells (anti-IgM, FLIPR Calcium 6); format: cell-based; conditions: EC80 anti-IgM, FLIPR calcium read
Method: On the day before assay, Ramos B cells were plated in plating medium (RPMI1640 medium containing 1% FBS and 1× pencillin-streptomycin). On the day of the assay, 2× dye solution was prepared following the manual of the FLIRP Calcium 6 Assay Kit: Dilute the dye with assay buffer (20 mM HEPES in 1×HBSS, pH7.4); Add probenecid to the final concentration of 5 mM; vortex vigorously for 1-2 minutes. Cells were collected by centrifuging, and the pellet was resuspended in plating medium. After counting, cells were resuspended at a density of 3×10^6/ml in plating medium. Equal volume of 2× dye solution was added to the cell suspension. Cells were then plated at 20 μl/well into a 384-well poly-D-lysine coated plate. Plate was centrifuged at 1000 rpm for 3 minutes and then incubated at 37° C. for 2 hours followed by an additional 15-minute incubation at 25° C. Compounds were prepared at 3× concentration in dilution buffer (20 mM HEPES and 0.1% BSA in 1×HBSS, pH 7.4). Serially diluted compound was transferred from source plate to a 384-well compound plate by using an Echo 550 (Labcyte). 20 μl/well compound dilution buffer was added to the compound plate and mixed on plate shaker for 2 mins. 4×EC80 of Anti-IgM (Jackson ImmunoResearch) was prepared in dilution buffer and 20 μl/well was added to a new 384-well compound plate. After 60 mins of incubation at 25° C. in the dark; cell plate, compound plate containing 4×EC80 of anti-IgM and FLIPR tips were placed into FLIPR (Molecular Devices). 10 ul/well of 4×EC80 anti-IgM was transferred to the cell plate by FLIPR. Plates were read for 160 sec with 1 sec interval.
With respect to Ramos activity, Table 9 lists activity as follows: • “A” denotes an IC50 of less than 10 nM; • “B” denotes an IC50 of from 10 nM to less than 100 nM; and • “C” denotes and IC50 of 100 nM or more.

BTK = BTK (Homo sapiens, UniProt Q06187); experiment: Assay to determine activity against BTK (EZ reader, FLPeptide); format: biochemical; parameters: purchased Carna; conditions: ATP (1 mM), BTK (2 nM), room temperature for 90 minutes
Method: Solutions of compounds (test or control) in DMSO were prepared at the desired concentrations, and serially diluted to 11 concentrations by 3-fold dilution in 384pp-plate using TECAN EVO200. 20 nL of stock were transferred to 384 plate using Echo550. DMSO was used as vehicle control.
Two separate solutions were prepared—an ATP solution containing MgCl2 (10 mM), Brij-35 (0.01%), DTT (2 mM), BSA (0.05%), EGTA (1 mM), HEPE (pH7.5) (50 mM), FLPeptide (6 uM) and ATP (4 mM); and a BTK solution containing MgCl2 (10 mM), Brij-35 (0.01%), DTT (2 mM), BSA (0.05%), EGTA (1 mM), HEPE (pH7.5) (50 mM) and BTK (2.67 nM). […] (Note the final volume of each well was 20 uL containing MgCl2 (10 mM), Brij-35 (0.01%), DTT (2 mM), BSA (0.05%), EGTA (1 mM), HEPE (pH7.5) (50 mM), FLPeptide (1.5 uM), ATP (1 mM) and BTK (2 nM).
The plates were incubated at room temperature for 90 minutes and then stopping buffer added (75 uL, containing 0.5 M EDTA) to terminate the reaction. Samples from each well were analyzed using EZ reader. The % remaining activity was calculated using read conversion ratio (CR) according to the equation: […]
XLFit (equation 201) was used to calculate IC50s by floating both bottom and top.
With respect to BTK activity, Table 4 lists activity as follows: • “A” denotes an IC50 of less than 10 nM, • “B” denotes an IC50 of from 10 nM to less than 100 nM; and • “C” denotes and IC50 of 100 nM or more.

Sequence of BTK (Q06187 whole entry): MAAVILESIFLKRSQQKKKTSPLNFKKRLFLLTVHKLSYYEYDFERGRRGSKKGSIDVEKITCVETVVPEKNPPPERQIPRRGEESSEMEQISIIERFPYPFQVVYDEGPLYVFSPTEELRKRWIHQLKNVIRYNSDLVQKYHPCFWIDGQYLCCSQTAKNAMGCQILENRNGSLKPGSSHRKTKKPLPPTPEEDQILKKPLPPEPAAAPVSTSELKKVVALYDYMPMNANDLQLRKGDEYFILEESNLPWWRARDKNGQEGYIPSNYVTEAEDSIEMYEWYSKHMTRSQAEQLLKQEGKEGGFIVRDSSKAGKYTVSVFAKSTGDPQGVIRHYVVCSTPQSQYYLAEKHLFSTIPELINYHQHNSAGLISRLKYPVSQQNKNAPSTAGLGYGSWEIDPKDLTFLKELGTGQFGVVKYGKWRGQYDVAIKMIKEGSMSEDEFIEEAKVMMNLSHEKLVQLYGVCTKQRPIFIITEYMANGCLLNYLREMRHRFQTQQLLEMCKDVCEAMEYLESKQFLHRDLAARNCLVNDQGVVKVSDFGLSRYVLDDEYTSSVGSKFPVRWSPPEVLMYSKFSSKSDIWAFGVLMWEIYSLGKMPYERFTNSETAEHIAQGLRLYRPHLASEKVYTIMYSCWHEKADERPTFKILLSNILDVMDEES

Structure (SMILES) | IC50 ([1]; Homo sapiens, Ramos) | IC50 (BTK) | IC50 [1] | IC50 ([1]; Homo sapiens)
C=CC(=O)N1CCCC(c2c(F)cc(C(N)=O)c3[nH]c(C)c(C(F)F)c23)C1 (centres unmarked) [Compound 14, 4-(1-acryloylpiperidin-3-yl)-3-(difluoromethyl)-5-fluoro-2-methyl-1H-indole-7-carboxamide] | ≥ 100 nM | ≥ 100 nM | – | –
C=CC(=O)N1CCC[C@H](c2c(F)cc(C(N)=O)c3[nH]c(C)c(C(F)F)c23)C1 [Compound 11, (R)-4-(1-acryloylpiperidin-3-yl)-3-(difluoromethyl)-5-fluoro-2-methyl-1H-indole-7-carboxamide] | ≥ 100 nM | ≥ 100 nM | – | –
C=CC(=O)N1CCc2c(cccc2-c2c(F)c(F)c(C(N)=O)c3[nH]c(C)c(Cl)c23)C1 [Compound 21a, 4-(2-acryloyl-1,2,3,4-tetrahydroisoquinolin-5-yl)-3-chloro-5,6-difluoro-2-methyl-1H-indole-7-carboxamide] | – | < 10 nM | 10 to 100 nM | –
C=CC(=O)N1CCc2c(-c3c(F)cc(C(N)=O)c4[nH]c(C)c(Cl)c34)cccc2[C@@H]1C (single isomer, unassigned) [Compound 22c] | ≥ 100 nM | ≥ 100 nM | – | –
C#CC(=O)N1CCc2c(cccc2-c2c(F)cc(C(N)=O)c3[nH]c(C)c(C)c23)C1 [Compound 20j, 5-fluoro-2,3-dimethyl-4-(2-propioloyl-1,2,3,4-tetrahydroisoquinolin-5-yl)-1H-indole-7-carboxamide] | 10 to 100 nM | < 10 nM | – | –
C#CC(=O)N1CCC[C@H](c2c(F)cc(C(N)=O)c3[nH]c(C)c(Cl)c23)C1 [Compound 7, (R)-3-chloro-5-fluoro-2-methyl-4-(1-propioloylpiperidin-3-yl)-1H-indole-7-carboxamide] | < 10 nM | < 10 nM | – | –
C=CC(=O)N1CCc2c(cccc2-c2c(F)c(F)c(C(N)=O)c3[nH]c(C)c(C#N)c23)C1 [Compound 21e, 4-(2-acryloyl-1,2,3,4-tetrahydroisoquinolin-5-yl)-3-cyano-5,6-difluoro-2-methyl-1H-indole-7-carboxamide] | 10 to 100 nM | 10 to 100 nM | – | –
C=CC(=O)N1CCCC(c2c(F)c(F)c(C(N)=O)c3[nH]c(C)c(Cl)c23)C1 (centres unmarked) [Compound 3, 4-(1-acryloylpiperidin-3-yl)-3-chloro-5,6-difluoro-2-methyl-1H-indole-7-carboxamide] | < 10 nM | < 10 nM | – | –
CC#CC(=O)N1CCC[C@H](c2c(F)cc(C(N)=O)c3[nH]c(C)c(Cl)c23)C1 [Compound 17, (R)-4-(1-(but-2-ynoyl)piperidin-3-yl)-3-chloro-5-fluoro-2-methyl-1H-indole-7-carboxamide] | ≥ 100 nM | ≥ 100 nM | – | –
C=CC(=O)N1CCc2c(cccc2-c2c(F)c(F)c(C(N)=O)c3[nH]c(C)c(Cl)c23)C1 (atropisomer, axis not shown) [Compound 21b, (R)-4-(2-acryloyl-1,2,3,4-tetrahydroisoquinolin-5-yl)-3-chloro-5,6-difluoro-2-methyl-1H-indole-7-carboxamide] | – | < 10 nM | < 10 nM | –
C=CC(=O)N1CCCc2c(cccc2-c2c(F)cc(C(N)=O)c3[nH]c(C)cc23)C1 [Compound 25b, 4-(2-acryloyl-2,3,4,5-tetrahydro-1H-benzo[c]azepin-6-yl)-5-fluoro-2-methyl-1H-indole-7-carboxamide] | – | 10 to 100 nM | – | ≥ 100 nM
C=CC(=O)N1CCc2c(cccc2-c2c(F)cc(C(N)=O)c3[nH]c(C)c(C#N)c23)C1 [Compound 20g, 4-(2-acryloyl-1,2,3,4-tetrahydroisoquinolin-5-yl)-3-cyano-5-fluoro-2-methyl-1H-indole-7-carboxamide] | – | < 10 nM | 10 to 100 nM | –
C=CC(=O)N1CCc2c(-c3c(F)cc(C(N)=O)c4[nH]c(C)c(Cl)c34)cccc2[C@H]1C (single isomer, unassigned) [Compound 22e] | – | < 10 nM | < 10 nM | –
C=CC(=O)N1CCc2c(cccc2-c2c(F)c(F)c(C(N)=O)c3[nH]c(C)c(F)c23)C1 [Compound 21d, 4-(2-acryloyl-1,2,3,4-tetrahydroisoquinolin-5-yl)-3,5,6-trifluoro-2-methyl-1H-indole-7-carboxamide] | 10 to 100 nM | 10 to 100 nM | – | –
C=CC(=O)N1CC(F)CC(c2c(F)cc(C(N)=O)c3[nH]c(C)c(Cl)c23)C1 (centres unmarked) [Compound 9, 4-(1-acryloyl-5-fluoropiperidin-3-yl)-3-chloro-5-fluoro-2-methyl-1H-indole-7-carboxamide] | < 10 nM | < 10 nM | – | –
C=CC(=O)N1CCc2c(-c3c(F)cc(C(N)=O)c4[nH]c(C)c(Cl)c34)cccc2[C@@H]1C (single isomer, unassigned) [Compound 22d] | – | ≥ 100 nM | ≥ 100 nM | –

Further lines, with some results ahead:

IC50 ([1]; Homo sapiens, Ramos) | IC50 (BTK) | IC50 [1] | Structure (SMILES) | IC50 ([1]; Homo sapiens)
≥ 100 nM | 10 to 100 nM | – | C=CC(=O)N1CCCc2c(cccc2-c2c(F)cc(C(N)=O)c3[nH]c(C)c(F)c23)C1 [Compound 25e, 4-(2-acryloyl-2,3,4,5-tetrahydro-1H-benzo[c]azepin-6-yl)-3,5-difluoro-2-methyl-1H-indole-7-carboxamide] | –
10 to 100 nM | 10 to 100 nM | – | C=CC(=O)N[C@H]1CN(c2c(F)cc(C(N)=O)c3[nH]c(C)c(C)c23)CC[C@@H]1F [Compound 30, 4-((3S,4S)-3-acrylamido-4-fluoropiperidin-1-yl)-5-fluoro-2,3-dimethyl-1H-indole-7-carboxamide] | –
10 to 100 nM | 10 to 100 nM | – | C=CC(=O)N[C@H]1C[C@H](O)CN(c2c(F)cc(C(N)=O)c3[nH]c(C)c(C)c23)C1 [Compound 38, 4-((3S,5S)-3-acrylamido-5-hydroxypiperidin-1-yl)-5-fluoro-2,3-dimethyl-1H-indole-7-carboxamide] | –
≥ 100 nM | ≥ 100 nM | – | C=CC(=O)N1Cc2cccc(-c3c(F)cc(C(N)=O)c4[nH]c(C)cc34)c2C2(CC2)C1 [Compound 24b, 4-(2′-acryloyl-2′,3′-dihydro-1′H-spiro[cyclopropane-1,4′-isoquinolin]-5′-yl)-5-fluoro-2-methyl-1H-indole-7-carboxamide] | –
10 to 100 nM | 10 to 100 nM | – | C=CC(=O)N1CCc2c(-c3c(F)cc(C(N)=O)c4[nH]c(C)cc34)cccc2C1C1CC1 (centres unmarked) [Compound 23, 4-(2-acryloyl-1-cyclopropyl-1,2,3,4-tetrahydroisoquinolin-5-yl)-5-fluoro-2-methyl-1H-indole-7-carboxamide] | –
≥ 100 nM | ≥ 100 nM | – | C=CC(=O)N1C[C@H]2CCN(c3c(F)cc(C(N)=O)c4[nH]c(C)c(Cl)c34)C[C@@H]2C1 (racemic) [Compound 39, 4-(trans-2-acryloyloctahydro-5H-pyrrolo[3,4-c]pyridin-5-yl)-3-chloro-5-fluoro-2-methyl-1H-indole-7-carboxamide] | –
≥ 100 nM | ≥ 100 nM | – | C=CC(=O)N1CC2CC1c1cccc(-c3c(F)cc(C(N)=O)c4[nH]c(C)c(Cl)c34)c12 (centres unmarked) [Compound 26, 4-(2-acryloyl-1,2,3,4-tetrahydro-1,4-methanoisoquinolin-5-yl)-3-chloro-5-fluoro-2-methyl-1H-indole-7-carboxamide] | –
≥ 100 nM | 10 to 100 nM | – | C=CC(=O)N[C@H]1C[C@@H](O)CN(c2c(F)cc(C(N)=O)c3[nH]c(C)c(C)c23)C1 [Compound 37, 4-((3S,5R)-3-acrylamido-5-hydroxypiperidin-1-yl)-5-fluoro-2,3-dimethyl-1H-indole-7-carboxamide] | –
≥ 100 nM | ≥ 100 nM | – | C=CC(=O)N1CCCc2c(cccc2-c2c(F)cc(C(N)=O)c3[nH]c(C)c(Cl)c23)C1 (single isomer, unassigned) [Compound 25c] | –
